≈ marks a conversion by molar mass, not a printed value.
Experiments:
Format in all cases: cell-based
[1] = system: E. coli NB27273-CDY0030 (SHV12); experiment: MIC by broth microdilution, isogenic E. coli strain expressing SHV12; conditions: Escherichia coli, read-out: Strain 3 MIC
Protocol: (§1) Bacterial isolates were cultivated from −70° C. frozen stocks by two consecutive overnight passages at 35° C. in ambient air on 5% blood agar (Remel, Lenexa, Kans.). Quality control and P. aeruginosa ATCC 27853) is from the American Type Culture Collection (ATCC; Rockville, Md.) and PAO1 was received from Dr. K. Poole.
(§2) Strain NB27273 (BW25113 pspB::Km^r) was obtained from the Keio transposon insertion collection. The strain has the pspB gene replaced by a kanamycin resistance marker (BW25113 pspB::Km^r). This strain was cured of the transposon in pspB via FLP recombinase using published methodology. The resulting strain, BW25113 pspB, was used as a host for multicopy vectors expressing key β-lactamases. Multicopy plasmids directing constitutive expression of β-lactamases were established as follows: Synthetic, codon optimized genes encoding E. coli KPC2 and SHV12 β-lactamases were made by DNA2.0 (Palo Alto, Calif.). Each of the synthetic fragments were designed to contain NotI and NcoI restriction sites at their termini, allowing ligation into a NotI/NcoI digested pET28a(+) derivative for protein expression. […] The codon optimized nucleotide sequences and relevant primer recognition information is shown below:
(§3) The PCR products were then digested with XhoI and EcoRI and ligated into similarly digested plasmid pAH63-pstS(BlaP). Plasmid pAH63-pstS(BlaP) is a derivative of plasmid pAH63 (J Bacteriol: 183(21): 6384-6393) made by cloning the TEM-1 (bla) promoter and signal peptide encoding region from plasmid pBAD (J Bacteriol. 1995 July 177(14):4121-30) into plasmid pAH63. This fragment was PCR amplified from pBAD using primer pair E192 (ttcaCTGCAGtgaacgttgcgaagcaacggC) (SEQ ID NO:13) and E194 (TCGAggatcctcgagagcaaaaacaggaaggcaaaatgccg) (SEQ ID NO:14), digested with PstI and BamHI and inserted into similarly digested plasmid pAH63. Therefore, expression of β-lactamases from pAH63-pstS(BlaP) based constructs is constitutive and the signal sequence is provided to direct these proteins to the periplasm. […] To accomplish this, the inserts encompassing the β-lactamase genes, with the associated TEM promoter and signal sequences, were PCR amplified from their corresponding vectors using primer E269 (ccgTCTAGAcggatggcctttttgcgtttc) (SEQ ID NO:15) and E202 (aatcGAATTCttactgaccattaacgcccaagc) (SEQ ID NO:16) for the KPC2 construct and E204 (aatcGAATTCttaacgctgccagtgctcaatc) (SEQ ID NO:17) for the SHV12 construct. These fragments were then digested with XbaI and EcoRI, and each was inserted into pBAD18-kan that had been digested with the same enzymes to generate a pair of multicopy vectors expressing KPC2 and SHV12 respectively. These vectors were transformed into BW25113 pspB to generate strains NB27273-CDY0033 (expressing KPC2) and NB27273-CDY0030 (expressing SHV12). The pBAD18-kan vector also contains the TEM promoter region and signal sequence, (but lacks any intact β-lactamase genes) and was transformed into BW25113 pspB using standard protocols to generate the control strain NB27273-CDY0026. […] Susceptibility Testing
(§4) Minimal Inhibitory Concentrations (MICs) were determined by the broth microdilution method in accordance with Clinical and Laboratories Institute (CLSI) guidelines. In brief, fresh overnight bacterial cultures were suspended in sterile saline, and adjusted to a 0.5 McFarland turbidity standard. Bacterial suspensions were then diluted in cation adjusted Mueller-Hinton Broth (MHB II; BBL) to yield a final inoculum of approximately 5×10^5 colony-forming units (CFU)/mL. A master plate of antibiotics was prepared at a concentration equivalent to hundred-fold the highest desired final concentration in 100% dimethyl sulfoxide (DMSO). The master antibiotic plate was then diluted by serial twofold dilution with a multichannel pipette. The resulting dilution series of compounds were diluted 1:10 with sterile water leading to a 10% DMSO final concentration.

E. coli strain 25922 = experiment: MIC by broth microdilution, E. coli strain 25922; conditions: Escherichia coli, 25922, E. coli strain 25922; read-out: Ec 25922 (MIC)
Procedure, shortened: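 CLSI broth microdilution in cation-adjusted Mueller-Hinton broth, inoculum about 5×10^5 CFU/mL, 10% DMSO from the diluted series, 20 h at 35-37° C. MIC is the lowest concentration preventing visible growth, read by eye and at 600 nm.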

[2] = system: E. coli NB27273-CDY0033 (KPC2); experiment: MIC by broth microdilution, isogenic E. coli strain expressing KPC2; conditions: Escherichia coli, read-out: Strain 2 MIC
Protocol: as §1, §2, §3, §4

[3] = system: E. coli NB27273-CDY0026 (parent); experiment: MIC by broth microdilution, isogenic E. coli parent strain; conditions: Escherichia coli, read-out: Strain 1 MIC
Protocol: as §1, §2, §3, §4

E. coli containing KPC-2 = experiment: MIC by broth microdilution, E. coli containing KPC-2 (Ec KPC2 Iso); conditions: Escherichia coli, read-out: Ec KPC2 Iso (MIC), E. coli containing KPC-2 (carbapenemase from Klebsiella pneumoniae)
Procedure, shortened: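 Host E. coli BW25113 pspB carrying multicopy pBAD18-kan plasmid with constitutive TEM-promoter KPC-2 expression (periplasmic signal sequence); broth microdilution per CLSI in cation-adjusted Mueller-Hinton broth, inoculum ~5×10^5 CFU/mL, compounds twofold serially diluted from DMSO masters (10% DMSO in dilution series added).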

CC(C)(O/N=C(\C(=O)N[C@@H]1C(=O)N(S(=O)(=O)O)[C@@H]1CN1CCCC1=O)c1csc(N)n1)C(=O)O [Example 1, 2-(((Z)-(1-(2-aminothiazol-4-yl)-2-oxo-2-(((3S,4R)-2-oxo-4-((2-oxopyrrolidin-1-yl)methyl)-1-sulfoazetidin-3-yl)amino)ethylidene)amino)oxy)-2-methylpropanoic acid]
MIC [1]: 2 µg/mL (≈ 3.86 µM) | MIC (E. coli strain 25922): 16 µg/mL (≈ 30.9 µM) | MIC [2]: 2 µg/mL (≈ 3.86 µM) | MIC [3]: 1 µg/mL (≈ 1.93 µM) | MIC (E. coli containing KPC-2): 2 µg/mL (≈ 3.86 µM)

CC1(C)[C@H](NC(=O)/C(=N\O[C@@H](COc2ccc(C(=N)NC3CCNCC3)cc2)C(=O)O)c2csc(N)n2)C(=O)N1OS(=O)(=O)O [compound 4, reference compound]
MIC [1]: 32 µg/mL (≈ 47.9 µM) | MIC [2]: 0.25 µg/mL (≈ 0.374 µM) | MIC [3]: ≤ 0.06 µg/mL

NC(=O)OC[C@@H]1[C@H](NC(=O)/C(=N\OCC(=O)O)c2csc(N)n2)C(=O)N1S(=O)(=O)O [compound 2, reference compound]
MIC [1]: > 32 µg/mL | MIC [2]: 1 µg/mL (≈ 2.14 µM) | MIC [3]: 0.125 µg/mL (≈ 0.268 µM)

C[C@H]1[C@H](NC(=O)/C(=N\OC(C)(C)C(=O)O)c2csc(N)n2)C(=O)N1S(=O)(=O)O [compound 1, reference compound]
MIC [1]: > 32 µg/mL

N=C(N)NCc1cn(C[C@@H]2[C@H](NC(=O)/C(=N\OC3(C(=O)O)CC3)c3csc(N)n3)C(=O)N2S(=O)(=O)O)nn1 [Example 28, 1-(((Z)-(1-(2-aminothiazol-4-yl)-2-(((2R,3S)-2-((4-(guanidinomethyl)-1H-1,2,3-triazol-1-yl)methyl)-4-oxo-1-sulfoazetidin-3-yl)amino)-2-oxoethylidene)amino)oxy)-cyclopropanecarboxylic acid]
MIC [1]: 0.5 µg/mL (≈ 0.875 µM) | MIC [2]: ≤ 0.06 µg/mL | MIC [3]: ≤ 0.06 µg/mL

N=C(NCCN)c1ccc(OC[C@H](O/N=C(\C(=O)N[C@@H]2C(=O)N(S(=O)(=O)O)[C@@H]2Cn2ncc(CN)n2)c2csc(N)n2)C(=O)O)cc1 [Example 66, (S)-3-(4-(N-(2-aminoethyl)carbamimidoyl)phenoxy)-2-(((Z)-(2-(((2R,3S)-2-((4-(aminomethyl)-2H-1,2,3-triazol-2-yl)methyl)-4-oxo-1-sulfoazetidin-3-yl)amino)-1-(2-aminothiazol-4-yl)-2-oxoethylidene)amino)oxy)propanoic acid]
MIC (E. coli strain 25922): 1 µg/mL (≈ 1.44 µM) | MIC (E. coli containing KPC-2): 2 µg/mL (≈ 2.88 µM)

CC(C)(O/N=C(\C(=O)N[C@@H]1C(=O)N(S(=O)(=O)O)[C@@H]1CN1C(=O)CCC1=O)c1csc(N)n1)C(=O)O [Example 121, 2-(((Z)-(1-(2-aminothiazol-4-yl)-2-(((2R,3S)-2-((2,5-dioxopyrrolidin-1-yl)methyl)-4-oxo-1-sulfoazetidin-3-yl)amino)-2-oxoethylidene)amino)oxy)-2-methylpropanoic acid]
MIC (E. coli strain 25922): 0.25 µg/mL (≈ 0.469 µM) | MIC (E. coli containing KPC-2): 0.25 µg/mL (≈ 0.469 µM)

CC(C)(O/N=C(\C(=O)N[C@@H]1C(=O)N(S(=O)(=O)O)[C@@H]1CN1C[C@@H](CNC(=N)N)OC1=O)c1csc(N)n1)C(=O)O [Example 24, 2-(((Z)-(1-(2-aminothiazol-4-yl)-2-(((2R,3S)-2-(((R)-5-(guanidinomethyl)-2-oxooxazolidin-3-yl)methyl)-4-oxo-1-sulfoazetidin-3-yl)amino)-2-oxoethylidene)amino)oxy)-2-methylpropanoic acid]
MIC (E. coli strain 25922): 0.25 µg/mL (≈ 0.423 µM) | MIC (E. coli containing KPC-2): 1 µg/mL (≈ 1.69 µM)

N=C(NCCCN)NCc1cnn(C[C@@H]2[C@H](NC(=O)/C(=N\OC3(C(=O)O)CC3)c3csc(N)n3)C(=O)N2S(=O)(=O)O)n1 [Example 119, 1-(((Z)-(2-(((2R,3S)-2-((4-((3-(3-aminopropyl)guanidino)methyl)-2H-1,2,3-triazol-2-yl)methyl)-4-oxo-1-sulfoazetidin-3-yl)amino)-1-(2-aminothiazol-4-yl)-2-oxoethylidene)amino)oxy)cyclopropanecarboxylic acid]
MIC (E. coli strain 25922): 0.25 µg/mL (≈ 0.398 µM) | MIC (E. coli containing KPC-2): 0.25 µg/mL (≈ 0.398 µM)

CC(C)(O/N=C(\C(=O)N[C@@H]1C(=O)N(S(=O)(=O)O)[C@@H]1Cn1ncc(C[N+]2(C)CCCC2)n1)c1csc(N)n1)C(=O)O [Example 36, (2R,3S)-3-((Z)-2-(2-aminothiazol-4-yl)-2-(((2-carboxypropan-2-yl)oxy)imino)acetamido)-2-((4-((1-methylpyrrolidin-1-ium-1-yl)methyl)-2H-1,2,3-triazol-2-yl)methyl)-4-oxoazetidine-1-sulfonate]
MIC (E. coli strain 25922): 2 µg/mL | MIC (E. coli containing KPC-2): 1 µg/mL

Nc1nc(/C(=N/OC2(C(=O)O)CC2)C(=O)N[C@@H]2C(=O)N(S(=O)(=O)O)[C@@H]2Cn2ncc(CN[C@H]3CCNC3)n2)cs1 [Example 91, 1-(((Z)-(1-(2-aminothiazol-4-yl)-2-oxo-2-(((3S,4R)-2-oxo-4-((4-(((S)-pyrrolidin-3-ylamino)methyl)-2H-1,2,3-triazol-2-yl)methyl)-1-sulfoazetidin-3-yl)amino)ethylidene)amino)oxy)cyclopropanecarboxylic acid]
MIC (E. coli strain 25922): 0.125 µg/mL (≈ 0.209 µM) | MIC (E. coli containing KPC-2): 0.25 µg/mL (≈ 0.418 µM)

CC1(C)[C@H](NC(=O)/C(=N\OCc2cc(=O)c(O)cn2O)c2csc(N)n2)C(=O)N1OS(=O)(=O)O [compound 3, reference compound]
MIC [1]: > 32 µg/mL | MIC [2]: 0.5 µg/mL (≈ 0.964 µM) | MIC [3]: 0.25 µg/mL (≈ 0.482 µM)

NCC1CN(Cc2cnn(C[C@@H]3[C@H](NC(=O)/C(=N\OC4(C(=O)O)CC4)c4csc(N)n4)C(=O)N3S(=O)(=O)O)n2)C1 [Example 92, 1-(((Z)-(2-(((2R,3S)-2-((4-((3-(aminomethyl)azetidin-1-yl)methyl)-2H-1,2,3-triazol-2-yl)methyl)-4-oxo-1-sulfoazetidin-3-yl)amino)-1-(2-aminothiazol-4-yl)-2-oxoethylidene)amino)oxy)cyclopropanecarboxylic acid]
MIC (E. coli strain 25922): 0.25 µg/mL (≈ 0.418 µM) | MIC (E. coli containing KPC-2): 0.5 µg/mL (≈ 0.835 µM)

C[C@@H]1CN(C[C@@H]2[C@H](NC(=O)/C(=N\OC(C)(C)C(=O)O)c3csc(N)n3)C(=O)N2S(=O)(=O)O)C(=O)O1 [Example 23, 2-(((Z)-(1-(2-aminothiazol-4-yl)-2-(((2R,3S)-2-(((R)-5-methyl-2-oxooxazolidin-3-yl)methyl)-4-oxo-1-sulfoazetidin-3-yl)amino)-2-oxoethylidene)amino)oxy)-2-methylpropanoic acid]
MIC (E. coli strain 25922): 2 µg/mL (≈ 3.74 µM) | MIC (E. coli containing KPC-2): 1 µg/mL (≈ 1.87 µM)

CC(C)(O/N=C(\C(=O)N[C@@H]1C(=O)N(S(=O)(=O)O)[C@@H]1Cn1cnnc1)c1csc(N)n1)C(=O)O [Example 56, 2-(((Z)-(2-(((2R,3S)-2-((4H-1,2,4-triazol-4-yl)methyl)-4-oxo-1-sulfoazetidin-3-yl)amino)-1-(2-aminothiazol-4-yl)-2-oxoethylidene)amino)oxy)-2-methylpropanoic acid]
MIC (E. coli strain 25922): 4 µg/mL (≈ 7.96 µM) | MIC (E. coli containing KPC-2): 16 µg/mL (≈ 31.8 µM)

Cc1ncn(C[C@@H]2[C@H](NC(=O)/C(=N\OC(C)(C)C(=O)O)c3csc(N)n3)C(=O)N2S(=O)(=O)O)n1 [Example 60, 2-(((Z)-(1-(2-aminothiazol-4-yl)-2-(((2R,3S)-2-((3-methyl-1H-1,2,4-triazol-1-yl)methyl)-4-oxo-1-sulfoazetidin-3-yl)amino)-2-oxoethylidene)amino)oxy)-2-methylpropanoic acid]
MIC (E. coli strain 25922): 8 µg/mL (≈ 15.5 µM) | MIC (E. coli containing KPC-2): 8 µg/mL (≈ 15.5 µM)
